According to patent publication US10400006B2, “Estrogen receptor modulators” (THE REGENTS OF THE UNIVERSITY OF CALIFORNIA, priority 2014, dated 2019):
“Also recorded” adds a separate entry of the source.

Experiments:
MCF-7 parental cells = conditions: xenografts in nude mice; cited from earlier work
[1] = system: MAPK, ERK-1 (p44) and ERK-2 (p42); assay: Estrogen-induced phosphorylation of MAPK in MCF-7 parental cells, Western blot; assay type: cell-based, human; conditions: for E2-induced rapid phosphorylation of ERK-1 and ERK-2 after pre-incubation: 1000 nM, in presence of estradiol (E2)
Experimental: ERD inhibition of phosphorylation of MAPK, at both extracellular signal-regulated kinases ERK-1 (p44) and ERK-2 (p42) and downstream effects. […] Thus, we measured estrogen-induced phosphorylation of MAPK by established methods (9,15,16). Briefly, MCF-7 parental cells were estrogen deprived for 48 hrs, then treated with 1 nM estradiol-17β in the presence of new compounds (10 nM-10 μM) to be tested for antagonist activity. After treatments, cell lysates were separated by SDS-PAGE followed by Western blot using a polyclonal antibody directed to phospho-p44/p42 MAP kinase (Thr202/Tyr204) (Cell Signaling). Immunodetection with antibody against total p44/p42 (Cell Signaling) was done as a control for gel loading. […] E2 but not vehicle (CN) induced rapid phosphorylation of ERK-1 (p44) and ERK-2 (p42). This activation was prevented when cells were pre-incubated with 1000 nM ICI 182,780 (ICI; Faslodex) or 1000 nM compound S15 in the presence of estradiol (E2).

[2] = clinic; cited from earlier work
MCF-7/HER-2 cells = conditions: xenografts in nude mice; cited from earlier work
[3] = system: human MCF-7 breast cancer cells; assay: MCF-7 cell proliferation, BrdU ELISA, in presence of 1 nM estradiol-17β; assay type: cell-based; conditions: for inhibition of MCF-7 cell proliferation/survival: 1 μM or 50 μM, in presence of 1 nM estradiol-17β, 72 hr; for effectiveness compared with fulvestrant in MCF-7 proliferation: same doses in vitro (1 μM or 50 μM)
Experimental: In experiments to assess potential proliferative effects of novel estrogen receptor ligands, human breast cancer cells were grown in phenol red-free, estrogen-free media with 1% dextran-coated charcoal-treated (DCC)-fetal bovine serum (FBS) for 48 hrs (15,44), then treated with either 1 μM or 50 μM doses of estrogen receptor antagonists in the presence of 1 nM estradiol-17β. Cell counts and viability tests (Trypan blue) were done every 24 hr for 3 days. After 72 hr, proliferation was assessed using the BrdU Cell proliferation ELISA (Roche). Cell numbers were also assessed initially by cell counts to confirm ELISA data. Each antiestrogen was tested at least in three different experiments.
In order to assess the antitumor action of novel estrogen receptor antagonists, we cultured human MCF-7 breast cancer cells with known expression of ERα. […] Cell proliferation is expressed as percentage of that determined in the 1 nM estradiol-17β-treated control group.

[4] = system: human non-small cell lung cancer cells A549; assay: A549 non-small cell lung cancer cell proliferation, MTS assay; assay type: cell-based; conditions: 1 μM or 10 μM, 72 hours, compared with fulvestrant
Experimental: Cell counts and viability tests (Trypan blue) were done every 24 hours for 3 days. After 72 hours, proliferation was assessed using the CellTiter 96™ AQueous One Solution Cell Proliferation Assay (MTS) from Promega. Cell numbers were also assessed initially by cell counts to confirm ELISA data. Each antiestrogen was tested in at least in three independent experiments.

estrogen receptor-alpha = molecular target: T1, estrogen receptor-alpha (Homo sapiens, UniProt P03372); assay: Western immunoblot of ERα protein levels in MCF-7 cells after 48 hrs; assay type: cell-based; conditions: 1 μM or 10 μM, in presence of 1 nM estradiol-17β
T1 construct: MCF-7 breast cancer cells with high expression of ERα protein were treated with estradiol-17β; endogenous in cells; host or cells: MCF-7 human breast cancer cells
T1 sequence (P03372 1-595): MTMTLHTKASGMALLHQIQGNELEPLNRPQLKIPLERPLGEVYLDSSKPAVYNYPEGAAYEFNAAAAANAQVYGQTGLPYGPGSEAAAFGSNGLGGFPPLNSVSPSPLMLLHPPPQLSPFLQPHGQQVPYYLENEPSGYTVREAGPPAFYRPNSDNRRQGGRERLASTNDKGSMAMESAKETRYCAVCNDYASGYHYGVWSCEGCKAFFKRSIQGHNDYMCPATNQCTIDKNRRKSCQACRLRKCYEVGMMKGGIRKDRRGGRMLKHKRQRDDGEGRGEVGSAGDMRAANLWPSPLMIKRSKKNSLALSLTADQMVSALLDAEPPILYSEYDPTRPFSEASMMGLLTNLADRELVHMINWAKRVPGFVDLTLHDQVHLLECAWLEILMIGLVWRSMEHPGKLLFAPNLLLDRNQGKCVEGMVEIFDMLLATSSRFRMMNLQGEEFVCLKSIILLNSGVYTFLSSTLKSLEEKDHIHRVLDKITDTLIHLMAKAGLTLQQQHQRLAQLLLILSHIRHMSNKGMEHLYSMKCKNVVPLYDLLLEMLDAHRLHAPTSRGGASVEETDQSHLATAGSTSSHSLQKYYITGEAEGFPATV

ER+ early breast cancer = conditions: cited from earlier work
ER protein = molecular target: T2, ER protein (Homo sapiens, UniProt P03372); assay: ER down-regulation, Western immunoblot of ER (66 kD) in MCF-7 cells; assay type: cell-based; conditions: 24 hours, 10, 100 and 1000 nM
T2 construct: endogenous in cells; host or cells: MCF-7 breast tumor cells
T2 sequence (P03372 1-595): T1 sequence (P03372 1-595)
Source text: ER down-regulation: To determine if selected compounds can down-regulate ER protein, we treated cells for 24-48 hrs in vitro with candidate compounds at varying doses. Then, cells were disrupted and prepared for PAGE and Western immunoblots using anti-ERα antibodies (see FIG. 6). […] Those ERDs with optimal activity in down-regulating ER were investigated further in the chemistry laboratory to further refine and develop such agents.

estrogen receptor = molecular target: T3, estrogen receptor (Homo sapiens, UniProt P03372); assay: Specific [3H]estradiol-17β binding in MCF-7 parental cells; conditions: 10 μM compound, 2 nM [3H]estradiol-17β
T3 construct: endogenous in cells; host or cells: MCF-7 parental breast cancer cells
T3 sequence (P03372 1-595): T1 sequence (P03372 1-595)
Experimental: Specific estradiol binding: Specific estradiol-17β (E2) binding was assessed in MCF-7 parental breast cancer cells as before (14-16). Briefly, cells were incubated with 2 nM [^3H]estradiol-17β and varying concentrations (1 nM-10 μM) of new estrogen receptor downregulator (ERD) analogues. The efficiency of the binding of compounds was measured by the loss of radioactivity of the [^3H]estradiol-17β. A 100-fold molar excess of unlabeled E2 was present with [3H]estradiol-17β in paired samples for determination of displaceable binding. […] Compounds S1-S14 are test compounds different from the exemplified compounds described herein.

Row | SMILES | growth of parent MCF-7 tumors (MCF-7 parental cells) | E2-induced rapid phosphorylation of ERK-1 and ERK-2 after pre-incubation [1] | sensitivity of MCF-7/HER-2 tumors (MCF-7/HER-2 cells) | inhibition of MCF-7 cell proliferation/survival [3] | effectiveness compared with fulvestrant in MCF-7 proliferation [3] | ERα protein expression in MCF-7 cells (estrogen receptor-alpha) | other results
1 | C[C@]12CC[C@@H]3c4ccc(O)cc4C[C@@H](CCCCCCCCC[S+]([O-])CCCC(F)(F)C(F)(F)F)[C@H]3[C@@H]1CC[C@@H]2O (stereo partly drawn) [fulvestrant] | suppressed | prevented | partially sensitive | – | – | – | bioavailability [2]: very low bioavailability; also recorded: low bioavailability
2 | C[C@]12C[C@H](Oc3ccc(NC(=O)CCCCN4CCCCC4)c(F)c3)[C@@H]3c4ccc(O)cc4CC[C@H]3[C@@H]1CC[C@@H]2O [JD140, N-(4-(((8S,9S,11S,13S,14S,17S)-3,17-Dihydroxy-13-methyl-7,8,9,11,12,13,14,15,16,17-deca-hydro-6H-cyclopenta[a]phenanthren-11-yl)oxy)-2-fluorophenyl)-5-(piperidin-1-yl)pentan-amide] | – | – | – | significant inhibition | more effective than the ER-downregulator fulvestrant | down-regulated | antiproliferative effects in A549 cells [4]: significant antiproliferative effects
3 | C[C@]12C[C@H](Oc3ccc(N)c(C(F)(F)F)c3)[C@@H]3c4ccc(O)cc4CC[C@H]3[C@@H]1CC[C@@H]2O [JD128, (8S,9S,11S,13S,14S,17S)-11-(4-Amino-3-(trifluoromethyl)phenoxy)-13-methyl-7,8,9,11,12,13,14,15,16,17-decahydro-6H-cyclopenta[a]phenanthrene-3,17-diol] | – | – | – | significant inhibition | more effective than the ER-downregulator fulvestrant | greatest effect at suppressing estrogen receptor-alpha expression | –
4 | CC/C(=C(\c1ccccc1)c1ccc(OCCN(C)C)cc1)c1ccccc1 [tamoxifen] | suppressed | – | insensitive | – | – | – | reduction in disease recurrence (ER+ early breast cancer): 39%; reduction in mortality (ER+ early breast cancer): 31%
5 | C[C@]12C[C@H](Oc3ccc(N)cc3)[C@@H]3c4ccc(O)cc4CC[C@H]3[C@@H]1CC[C@@H]2O [JD105, (8S,9S,11S,13S,14S,17S)-11l-(4-aminophenoxy)-13-methyl-7,8,9,11,12,13,14,15,16,17-decahydro-6H-cyclopenta[a]phenanthrene-3,17-diol] | – | prevented | – | – | – | – | inhibition of estrogen-induced phosphorylation of MAPK (ERK-1 p44 and ERK-2 p42) ([1]; 1 nM estradiol-17β): inhibits phosphorylation of MAPK; effectiveness compared with fulvestrant in inhibiting estrogen-induced MAPK phosphorylation ([1]; breast tumor cells in vitro): as effective as fulvestrant; ER protein levels in MCF-7 cells (ER protein): reduces ER protein levels; suppression of specific binding of [3H]estradiol-17β (estrogen receptor): suppressed; suppression of specific binding of [3H]estradiol-17β (estrogen receptor; listed as S15): suppressed effectively
